Test system: Monilinia fructicola isolate
Test: Radial mycelial growth on SDHI-amended PDA, Monilinia fructicola isolate (FIG. 4)
Type: cell-based
Conditions: versus positive control fluxapyroxad
Description: FIG. 4 depicts the fungicidal performance of a compound according to the disclosure (“1831”) against Monilinia fructicola isolate against a blank control, as compared to fluxapyroxad, a commercially available fungicide (“fluxa”).
The inhibitory effects of these SDHI compounds were evaluated against the various pathogenic isolates grown on half-strength potato dextrose agar (PDA) amended with a given SDHI. SDHIs were formulated as 10,000 ppm stocks in DMSO. Inoculated media were prepared using a ratio of 12 g potato dextrose broth powder to 15 g agar to 1 L of deionized water. Upon autoclaving and cooling to 55° C., the media were inoculated with the SDHI compound of interest (1 mL of 10,000 ppm stock in 1 L media) then poured into plates. This method represented a 10 ppm trial for the SDHI compound. Mycelial plugs were cut from the leading growth of active fungal colonies (supported on full PDA media) and placed mycelia-down in the center of a plate. After an appropriate number of days (3-14 days, depending on pathogen), the radial growth was measured (average of three plates), and reported as the radial mycelial growth or as radial mycelial growth relative to a control. An analogous procedure was employed to determine the EC50 value by varying the concentration of the initial SDHI compound DMSO stock. […]

## Cn1ncc(C(=O)NC23CCC(c4ccccc42)C3(C)C)c1Cl (stereo not shown) [compound 1831]
  radial growth relative to that seen with fluxapyroxad: about half
